Data from patent publication US7186703B2, “Derivatives of branched-chain lipophilic molecules and uses thereof” (D-Pharm Ltd., priority 2000, dated 2007).
Where “and” joins values, the source holds several entries; their conditions need not be identical. Equal values may be shown once. Read-outs that look alike come from different tables or passages of the source.

What was measured:
[1] = system: Normal bone marrow (BM) cells; assay: MTT cytotoxicity, normal bone marrow cells; format: cell-based, mouse; conditions: five days, read-out: EC50 (50% reduction in cell viability)
Method: (§1) The cytotoxic activity of various phospho-derivatives of branched-chain fatty acids (DP-BFAs) was assayed in vitro in cell cultures that include normal and malignant cell types. The following cell systems were used: • Primary fibroblasts (human) • Normal bone marrow (BM) cells (mouse) • Primary bronchial epithelial cells (human, from Clonetics, cat. no. CC-2541) • Caco-2—colon cancer cell line (human, ATTC, HTB-37) • C6 glioma cell line (rat, ATCC, CRL-2199) • Neuro2a—neuroblastoma cell line (mouse, ATCC, CCL-131) • SKBR-3—breast cancer cell line (human, ATTC, HTB-30) • HL60—myeloid leukemia cell line (human, ATCC, CCL-240) • U937—myeloid leukemia cell line (human)
(§2) Cells were seeded in a microtiter plate in MEM containing 2 mM L-glutamine, 100 units/ml penicillin, 100 ug/ml streptomycin and 10% FCS at 37° C. The cultured cells were incubated, during their linear growth phase in the absence (control group) or presence of various DP-BFAs as indicated. The final concentrations of the tested DP-BFAs ranged from 1.5 to 200 microMolars. At the end of the incubation period, which was five days for the bone marrow cells and three days for all the other cell lines, the cytotoxic effect of the added P-BFA on the cells was estimated by using the colorimetric MTT assay. The MTT assay (Mosmann (1983) J. Immunol Methods 65: 55–63) measures mitochondrial reductase activity and serves for quantitative assessment of cellular viability. Drug concentration that causes 50% reduction in cell viability in comparison to the control group, is defined as EC50. The EC50 values of the tested DP-BFA compounds were calculated from dose response curves established for each of the different assayed cell lines.
(§3) Each EC50 value is an average of EC50 values derived from 1–5 independent experiments.

[2] = system: Caco-2 colon cancer cell line; assay: MTT cytotoxicity, Caco-2; format: cell-based, human; conditions: Caco-2, three days, read-out: EC50 (50% reduction in cell viability)
Method: as §1, §2, §3

[3] = system: SKBR-3 breast cancer cell line; assay: MTT cytotoxicity, SKBR-3; format: cell-based, human; conditions: three days, read-out: EC50 (50% reduction in cell viability)
Method: as §1, §2, §3

[4] = system: Neuro2a neuroblastoma cell line; assay: MTT cytotoxicity, Neuro2a; format: cell-based, mouse; conditions: three days, read-out: EC50 (50% reduction in cell viability)
Method: as §1, §2, §3

C6 gliosarcoma tumor = assay: Anti-tumor activity in C6 glioma-bearing rats, tumor volume (Example 27); format: in vivo, rat; conditions: for Tumor volume (mm^3) ± SE: control 8.1 ± 2.22; for anti-tumor effect on glioma growth (in words): rat, in vivo
Source text: The anti-tumor effects of various P-BFAs were studied in the in vivo model system described above in Example 17. Tested P-BFAs were intra-arterially administered at the concentrations previously determined as being effective in permeabilization of the BBB and BTB for Evans blue and Fluorescein extravasation. The experimental procedure for tumor inoculation, as described in Example 23, was followed.
On Day 3–4 following inoculation of the C6 gliosarcoma cells, rat were cannulated through external carotid artery and the tested P-BFAs were infused over 30 seconds, as described in Example 17, except that in this experiment no markers were administered. The treated rats were maintained until Day 7–9, and then sacrificed. Coronal sections were obtained, stained by eosin-hematoxylin, and reviewed histologically to determine tumor volume. Animals treated with vehicle only serve as control. Standard error and Student's test for statistical significance were used.

[5] = system: U937 myeloid leukemia cell line; assay: MTT cytotoxicity, U937; format: cell-based, human; conditions: U937, three days, read-out: EC50 (50% reduction in cell viability)
Method: as §1, §2, §3

Primary fibroblasts = assay: MTT cytotoxicity, normal primary fibroblasts; format: cell-based, human; conditions: three days, read-out: EC50 (50% reduction in cell viability)
Method: as §1, §2, §3

[6] = system: Primary bronchial epithelial cells; assay: MTT cytotoxicity, normal primary epithelial cells; format: cell-based, human; conditions: Normal primary epithel, three days, read-out: EC50 (50% reduction in cell viability)
Method: as §1, §2, §3

[7] = system: blood tumor barrier (BTB) of C6 glioma; assay: BTB opening in C6 glioma-bearing rats, Evans blue accumulation in tumor; format: in vivo, Sprague Dawley rats; conditions: for EC50: C6 glioma-bearing rats; for BTB EB μg/g Tumor: concentrations around EC50 (Mannitol 25%), unilateral 30 s infusion; for Specificity Tumor/Non-tumor (T/NT): ratio of EB accumulated in tumor and non-tumor brain
Method: (§4) In order to study the ability of DP-BFA compounds to modulate blood tumor barrier (BTB), a model system of C6 glioma-bearing rats, was employed.
(§5) Sprague Dawley (SD) rats were inoculated with C6 gliosarcoma cells following the procedure described by Bartus et al. (Exp Neurol (1996); 142:14–28). A small burr-hole was made in the frontal scalp bone of the rat fixed in a stereotaxis apparatus. Using a Hamilton syringe, 10 μl or 5 μl of media, containing 2.5×10^5 C6 gliosarcoma cells were inoculated into the frontal cortex. Coordinates were 1 mm posterior of bregma, 2.5 mm—lateral, and 3 mm—depth. The needle remained in the place for 5 min. After removal of the needle, fascia and scalp were sutured. The rats were checked 6–8 days after inoculation, when tumors of sufficient size (20–60 mg) had developed. The tumor was weighed after F—Na visualization and dissection. Parts of the rats' brains were subject to histological examinations and monitored for Evans Blue and Fluorescein uptake into ipsilateral tumour tissue, peritumoural tissue and contralateral tissue.
(§6) The bilateral tumor model system of C6 glioma-bearing rats described in Example 23 above was employed for screening of various derivatives of DP-BFA for their ability to permeabilize the blood brain barrier (BBB) in comparison to their effect on the blood tumor barrier (BTB). The experimental procedure described in Example 23 was followed except that the tumor-bearing rats were further treated with DP-BFA. The tested compounds, at concentrations around their EC50 values, were unilaterally infused into the external carotis artery over 30 seconds as described in Example 17. Animals treated with vehicle only serve as a control group. Permeabilization effect was quantitated by measuring accumulation of albumin bound Evans blue dye in tumor (T) versus non-tumor (NT) tissues.
(§7) Specificity index is defined as the ratio between the levels of EB accumulated in tumor and those accumulated in non-tumor brain tissues (T/NT).

[8] = system: blood brain barrier (BBB); assay: BBB opening in C6 glioma-bearing rats, Evans blue accumulation in non-tumor brain; format: in vivo, Sprague Dawley rats; conditions: concentrations around EC50 (Mannitol 25%), unilateral 30 s infusion
Method: as §4, §5, §6, §7

[9] = system: HL60 myeloid leukemia cell line; assay: MTT cytotoxicity, HL60; format: cell-based, human; conditions: HL60, three days, read-out: EC50 (50% reduction in cell viability)
Method: as §1, §2, §3

[10] = Mus musculus, Bone marrow cell, 120 h
[11] = Homo sapiens, Primary bronchial epithelial cell, 72 h

Compound	EC50 [2]	EC50 [3]	EC50 [4]	EC50 [5]	EC50 [1, 10]	EC50 ([2]; Homo sapiens, 72 h)	EC50 ([3]; Homo sapiens, SK-BR-3, 72 h)	EC50 ([4]; Mus musculus, N2a, 72 h)	anti-tumor effect on glioma growth (in words) (C6 gliosarcoma tumor)	EC50 ([7]; Rattus norvegicus)	BTB EB μg/g Tumor [7]	Specificity Tumor/Non-tumor (T/NT) [7]	EC50 ([5]; Homo sapiens, U-937, 72 h)	BBB EB μg/g Non-tumor brain [8]	EC50 (Primary fibroblasts; Homo sapiens, Fibroblast, 72 h)	EC50 ([9]; Homo sapiens, HL-60, 72 h)	EC50 [6, 11]	EC50 [7]	further results
CCCCCCCCCCCCC(CCC)C(=O)OCCOCCOP(=O)([O-])[O-].[Na+].[Na+] (centres unmarked) [3,12-DEG-PO4Na2, 2-[2′-(2″-Propyltetradecanoyloxy)-ethoxy]ethyl Disodium Phosphate]	40 µM	60 µM	58 µM	25 µM	–	–	–	–	–	–	–	–	–	–	–	–	–	–	EC50 [1]: 62 µM; Tumor volume (mm^3) ± SE (C6 gliosarcoma tumor; P-BFA 30 μM i.a.): 1.6 ± 0.4 mm^3; EC50 (Primary fibroblasts): 65 µM; EC50 [6]: > 200 µM
CCCCCCCCCCCCC(CCC)C(=O)OCCOP(=O)([O-])OCC[N+](C)(C)C (centres unmarked) [3,12-MEG-PC, 2-(2′-Propyltetradecanoyloxy)ethylphosphocholine]	–	–	–	–	95 µM	75 µM	50 µM	70 µM	significant anti-tumor activity	20 µM	12 µg/g	2	9 µM	6 µg/g	160 µM	20 µM	94 µM	–	Tumor volume (mm^3) ± SE (C6 gliosarcoma tumor; P-BFA 10 μM i.a.): 2.88 ± 0.6 mm^3
CCCCCCCCCCCCC(CCC)C(=O)[O-].[Na+] (centres unmarked) [3,12-Na, reference compound]	100 µM	130 µM	76 µM	68 µM	–	–	–	–	–	–	44 ± 8 µg/g	1.1 ± 0.3	–	43 ± 9 µg/g	–	–	–	22 ± 4 µM	–
CCCCCCCCCCCCC(CCC)C(=O)OCCOCCOP(=O)([O-])OCC[N+](C)(C)C (centres unmarked) [3,12-DEG-PC, 2-(2′-Propyltetradecanoyloxy)ethoxyethylphosphocholine]	–	–	–	–	166 µM	113 µM	40 µM	134 µM	–	60 µM	11 µg/g	2	6 µM	5 µg/g	170 µM	11 µM	90 µM	–	Tumor volume (mm^3) ± SE (C6 gliosarcoma tumor; P-BFA 60 μM i.a.): 3.9 ± 1.0 mm^3
2-(4′-Hexadecanoyloxy)ethoxyethyl phosphate [3,12-DEG-PO4]	–	–	–	–	–	–	–	–	most pronounced anti-tumor effect	–	34 ± 8 µg/g	22 and 22 ± 5	–	2.0 ± 0.2 µg/g	–	–	–	7 ± 2 µM	–
CCCCCCCCCCCCC(CCC)OP(=O)([O-])OCC[N+](C)(C)C (centres unmarked) [3,12-PC, 4-Hexadecanyl phosphocholine]	150 µM	62 µM	–	–	–	–	–	–	–	–	17 ± 2 µg/g	1.8 ± 0.5	–	10 ± 2 µg/g	–	–	–	52 ± 7 µM	Tumor volume (mm^3) ± SE (C6 gliosarcoma tumor; P-BFA 50 μM i.a.): 3.8 ± 0.8 mm^3; EC50 [9]: 47 µM
